{"source": "ChEMBL document CHEMBL3885861", "about": "“Open TG-GATES”", "organism": "Rattus norvegicus", "experiment": "Open TG-GATES - Regimen: Daily Repeat", "format": "toxicity, organism-based, Sprague-Dawley", "design": "regimen Daily Repeat, gender Male, age 6 weeks", "details": "in vivo, po, 0 mg/kg, […], route gavage, dose level Control; for KIDNEY_L / KIDNEY_R / KIDNEY_TOTAL: tissue Kidney; for LIVER: tissue Liver; for A/G / ALP / ALT / AST / BUN / CRE / Ca / Cl / DBIL / GLC / IP / K / LDH / Na / PL / RALB / TBIL / TC / TG / TP / gamma-GTP: tissue Plasma", "data": [{"smiles": "O=C(OC[C@H]1O[C@@H](OC(=O)c2cc(O)c(O)c(OC(=O)c3cc(O)c(O)c(O)c3)c2)[C@H](OC(=O)c2cc(O)c(O)c(OC(=O)c3cc(O)c(O)c(O)c3)c2)[C@@H](OC(=O)c2cc(O)c(O)c(OC(=O)c3cc(O)c(O)c(O)c3)c2)[C@@H]1OC(=O)c1cc(O)c(O)c(OC(=O)c2cc(O)c(O)c(O)c2)c1)c1cc(O)c(O)c(OC(=O)c2cc(O)c(O)c(O)c2)c1", "note": "[TANNIC ACID]", "values": [{"measurement": "Lym", "setting": "tissue Blood, time 28 day", "result": 84, "unit": "%"}, {"measurement": "MCH", "setting": "tissue Blood, time 28 day", "result": 19.9, "unit": "pg"}, {"measurement": "MCHC", "setting": "tissue Blood, time 28 day", "result": 33.7, "unit": "%"}, {"measurement": "MCV", "setting": "tissue Blood, time 28 day", "result": 59.2, "unit": "fL"}, {"measurement": "Mono", "setting": "tissue Blood, time 28 day", "result": 5.2, "unit": "%"}, {"measurement": "Neu", "setting": "tissue Blood, time 28 day", "result": 9.8, "unit": "%"}, {"measurement": "PT", "setting": "tissue Blood, time 28 day", "result": 11.8, "unit": "s"}, {"measurement": "Plat", "setting": "tissue Blood, time 28 day", "result": 112.4, "unit": "x10_4/uL"}, {"measurement": "RBC", "setting": "tissue Blood, time 28 day", "result": 738.4, "unit": "x10_4/ul"}, {"measurement": "Ret", "setting": "tissue Blood, time 28 day", "result": 2.8, "unit": "%"}, {"measurement": "WBC", "setting": "tissue Blood, time 28 day", "result": 144.2, "unit": "x10_2/uL"}, {"measurement": "KIDNEY_L", "setting": "time 7 day", "result": 1.1, "unit": "g"}, {"measurement": "KIDNEY_R", "setting": "time 7 day", "result": 1.1, "unit": "g"}, {"measurement": "KIDNEY_TOTAL", "setting": "time 7 day", "result": 2.2, "unit": "g"}, {"measurement": "KIDNEY_L", "setting": "time 14 day", "result": 1.2, "unit": "g"}, {"measurement": "KIDNEY_R", "setting": "time 14 day", "result": 1.2, "unit": "g"}, {"measurement": "KIDNEY_TOTAL", "setting": "time 14 day", "result": 2.4, "unit": "g"}, {"measurement": "KIDNEY_L", "setting": "time 28 day", "result": 1.4, "unit": "g"}, {"measurement": "KIDNEY_R", "setting": "time 28 day", "result": 1.4, "unit": "g"}, {"measurement": "KIDNEY_TOTAL", "setting": "time 28 day", "result": 2.7, "unit": "g"}, {"measurement": "LIVER", "setting": "time 7 day", "result": 12.3, "unit": "g"}, {"measurement": "LIVER", "setting": "time 14 day", "result": 14.2, "unit": "g"}, {"measurement": "LIVER", "setting": "time 28 day", "result": 17.9, "unit": "g"}, {"measurement": "A/G", "setting": "time 7 day", "result": 1.7}, {"measurement": "ALP", "setting": "time 7 day", "result": 813.4, "unit": "IU/L"}, {"measurement": "ALT", "setting": "time 7 day", "result": 34.4, "unit": "IU/L"}, {"measurement": "AST", "setting": "time 7 day", "result": 60.6, "unit": "IU/L"}, {"measurement": "BUN", "setting": "time 7 day", "result": 19, "unit": "mg/dL"}, {"measurement": "CRE", "setting": "time 7 day", "result": 0.4, "unit": "mg/dL"}, {"measurement": "Ca", "setting": "time 7 day", "result": 10.8, "unit": "mg/dL"}, {"measurement": "Cl", "setting": "time 7 day", "result": 103.2, "unit": "meq/L"}, {"measurement": "DBIL", "setting": "time 7 day", "result": 0.006, "unit": "mg/dL"}, {"measurement": "GLC", "setting": "time 7 day", "result": 205.2, "unit": "mg/dL"}, {"measurement": "IP", "setting": "time 7 day", "result": 8.1, "unit": "mg/dL"}, {"measurement": "K", "setting": "time 7 day", "result": 4.4, "unit": "meq/L"}, {"measurement": "LDH", "setting": "time 7 day", "result": 57, "unit": "IU/L"}, {"measurement": "Na", "setting": "time 7 day", "result": 137.8, "unit": "meq/L"}, {"measurement": "PL", "setting": "time 7 day", "result": 160.2, "unit": "mg/dL"}, {"measurement": "RALB", "setting": "time 7 day", "result": 3.6, "unit": "g/dL"}, {"measurement": "TBIL", "setting": "time 7 day", "result": 0.4, "unit": "mg/dL"}, {"measurement": "TC", "setting": "time 7 day", "result": 85.4, "unit": "mg/dL"}, {"measurement": "TG", "setting": "time 7 day", "result": 119.6, "unit": "mg/dL"}, {"measurement": "TP", "setting": "time 7 day", "result": 5.7, "unit": "g/dL"}, {"measurement": "gamma-GTP", "setting": "time 7 day", "result": 1, "unit": "IU/L"}, {"measurement": "A/G", "setting": "time 14 day", "result": 1.8}, {"measurement": "ALP", "setting": "time 14 day", "result": 806.2, "unit": "IU/L"}, {"measurement": "ALT", "setting": "time 14 day", "result": 31.2, "unit": "IU/L"}, {"measurement": "AST", "setting": "time 14 day", "result": 58.8, "unit": "IU/L"}, {"measurement": "BUN", "setting": "time 14 day", "result": 18.4, "unit": "mg/dL"}, {"measurement": "CRE", "setting": "time 14 day", "result": 0.6, "unit": "mg/dL"}, {"measurement": "Ca", "setting": "time 14 day", "result": 10.7, "unit": "mg/dL"}, {"measurement": "Cl", "setting": "time 14 day", "result": 103.8, "unit": "meq/L"}, {"measurement": "DBIL", "setting": "time 14 day", "result": 0.018, "unit": "mg/dL"}, {"measurement": "GLC", "setting": "time 14 day", "result": 198, "unit": "mg/dL"}, {"measurement": "IP", "setting": "time 14 day", "result": 7.8, "unit": "mg/dL"}, {"measurement": "K", "setting": "time 14 day", "result": 4.6, "unit": "meq/L"}, {"measurement": "LDH", "setting": "time 14 day", "result": 81, "unit": "IU/L"}, {"measurement": "Na", "setting": "time 14 day", "result": 139.6, "unit": "meq/L"}, {"measurement": "PL", "setting": "time 14 day", "result": 140.2, "unit": "mg/dL"}, {"measurement": "RALB", "setting": "time 14 day", "result": 3.8, "unit": "g/dL"}, {"measurement": "TBIL", "setting": "time 14 day", "result": 0.3, "unit": "mg/dL"}, {"measurement": "TC", "setting": "time 14 day", "result": 70.2, "unit": "mg/dL"}, {"measurement": "TG", "setting": "time 14 day", "result": 115.2, "unit": "mg/dL"}, {"measurement": "TP", "setting": "time 14 day", "result": 5.9, "unit": "g/dL"}, {"measurement": "gamma-GTP", "setting": "time 14 day", "result": 1, "unit": "IU/L"}, {"measurement": "A/G", "setting": "time 28 day", "result": 1.8}, {"measurement": "ALP", "setting": "time 28 day", "result": 563.4, "unit": "IU/L"}, {"measurement": "ALT", "setting": "time 28 day", "result": 29.4, "unit": "IU/L"}, {"measurement": "AST", "setting": "time 28 day", "result": 56.8, "unit": "IU/L"}, {"measurement": "BUN", "setting": "time 28 day", "result": 20.4, "unit": "mg/dL"}, {"measurement": "CRE", "setting": "time 28 day", "result": 0.6, "unit": "mg/dL"}, {"measurement": "Ca", "setting": "time 28 day", "result": 11, "unit": "mg/dL"}, {"measurement": "Cl", "setting": "time 28 day", "result": 105.4, "unit": "meq/L"}, {"measurement": "DBIL", "setting": "time 28 day", "result": 0.006, "unit": "mg/dL"}, {"measurement": "GLC", "setting": "time 28 day", "result": 221.4, "unit": "mg/dL"}, {"measurement": "IP", "setting": "time 28 day", "result": 7.1, "unit": "mg/dL"}, {"measurement": "K", "setting": "time 28 day", "result": 4.4, "unit": "meq/L"}, {"measurement": "LDH", "setting": "time 28 day", "result": 63.6, "unit": "IU/L"}, {"measurement": "Na", "setting": "time 28 day", "result": 139.6, "unit": "meq/L"}, {"measurement": "PL", "setting": "time 28 day", "result": 152.6, "unit": "mg/dL"}, {"measurement": "RALB", "setting": "time 28 day", "result": 3.9, "unit": "g/dL"}, {"measurement": "TBIL", "setting": "time 28 day", "result": 0.2, "unit": "mg/dL"}, {"measurement": "TC", "setting": "time 28 day", "result": 73.6, "unit": "mg/dL"}, {"measurement": "TG", "setting": "time 28 day", "result": 141.4, "unit": "mg/dL"}, {"measurement": "TP", "setting": "time 28 day", "result": 6.2, "unit": "g/dL"}, {"measurement": "gamma-GTP", "setting": "time 28 day", "result": 0.6, "unit": "IU/L"}]}]}
